Test results: paper PMC12491715 (Acta Pharmaceutica Sinica. B, 2025)

How the values were obtained:
hAChE = hAChE (Homo sapiens, UniProt P22303); assay: ChE IC50 determination, method of Ellman, hAChE; format: biochemical
Experimental: The inhibitory potencies of the compounds against the ChEs were determined using the method of Ellman following the procedure described previously. Briefly, compound stock solutions in DMSO were incubated with Ellman’s reagent and ChEs (final concentrations: 370 μmol/L Ellman’s reagent, approximately 1 nmol/L or 50 pmol/L hBChE or hAChE, respectively) in 0.1 mol/L sodium phosphate pH 8.0 for 5 min at 20 °C. For time-dependency measurements, the pre-incubation time was varied (1, 5, 15, 30 or 60 min). The reactions were started by the addition of the substrate (final concentration, 500 μmol/L butyrylthiocholine iodide or acetylthiocholine iodide for hBChE and hAChE, respectively). The final content of DMSO was always 1%. The increase in absorbance at 412 nm was monitored for 2 min using a 96-well microplate reader (Synergy HT, BioTek Instruments, VT, USA). The initial velocities in the presence (vi) and absence (v0) of the test compounds were calculated. The inhibitory potencies were expressed as the residual activities, according to Eq. (1):(1) RA = vi / v0
For IC50 determinations, at least seven different concentrations for each compound were used. The IC50 values were obtained by plotting the residual ChE activities against the applied inhibitor concentrations, with the experimental data fitted to a four-parameter logistic function (GraphPad Prism 9.4). Tacrine and donepezil were used as positive controls.

[1] = Plasma and brain distribution profile in mice; conditions: 1 mg/kg, intravenous and peroral
Source text: Animals All mice used were 9–15 weeks old wild-type BALB/c mice bred in the Laboratory of Animal Genomics at the Faculty of Veterinary Medicine, University of Ljubljana. For intravenous administration, 4 males and one female were additionally purchased from Envigo RMS Holding Corp. Mice were conventionally bred in open polycarbonate cages (Tecniplast, Buguggiate, Italy) and provided with wood chip bedding (Lignocel®, Rettenmaier and Sons, Germany). Mice were kept under standard conditions, i.e., a 12:12 dark–light cycle (LED, CCT 3000 K, ≤ 25 lux above the cage), at temperature 21–24 °C, and 50%–60% humidity. They were fed irradiated rodent diet with minimal levels of phytoestrogens (Teklad global 16% protein rodent diet®, BN 2916, Envigo, Udine, Italy) and had access to drinkable tap water ad libitum.
For each time point, 4 mice, two females and two males, were used. A total of 24 animals were used (n = 24) for each route of administration. […] Peroral administration was performed via flexible plastic feeding tubes (20G × 30 mm, Instech Laboratories, USA) by gavage, with volume dose of 200 μL/20 g body weight. Intravenous administration into the tail vein was performed under isoflurane inhalation anesthesia (Isoflurin®, VetPharma, Spain) using a syringe (INSULIN100, 29G × 1/2″, 12.7 mm, CHINS00329, Chirana T. Injecta, a.s., Slovakia) with a volume dose of 150 μL. […]

tau = assay: Western blot of APP/PS1 mice brain homogenates, tau; format: in vivo, C57BL/6J-TgN(APP/PS1)ZLFILAS mice; conditions: 15-day treatment, 1 or 5 mg/kg ip
[2] = system: ICR mice icv-injected with Aβ1–42; assay: Y maze spontaneous alternation, mice model with icv-injection of Aβ1–42; format: in vivo; conditions: ip, once a day
Experimental: Mice model with icv-injection of Aβ1–42 The experiments were performed using ICR male mice (8–10 weeks old, weight 18–20 g), which were purchased from Shanghai Bikai Animal Breeding Factory (Shanghai, China). Animals were housed in cages (6 mice per cage) at a constant temperature of 25±2 °C, humidity of 55%±10% and a light/dark (12:12) cycle. The mice had unlimited access to food and water prior to the experiment. Specified conditions for the maintenance of mice were ensured throughout the experiments, including tree bedding (Yizheng Anlimao Biotechnology Co., Ltd., China) and lab feed (Zimao, China). For behavioural tests, mice were selected randomly, each group consisted of 6 mice. The experiments were performed between 9 am and 3 pm.
According to the literature procedure, recombinant human hexafluoroisopropanol-pretreated Aβ1–42 from Merck Millipore (Darmstadt, Germany) was dissolved in 1% DMSO, diluted with saline to the final concentration of 2 mg/mL, and incubated for 72 h to form oligomers. […]
Spontaneous alternation (Y maze) test was used to assess working memory in mice. […] The experimental data recorded the number of times the animal entered the three arms in a row. […] The behavior of mice in the Y maze was recorded by Xeye Aba and processed by GraphPad Prism 5.

hBChE = hBChE (Homo sapiens, UniProt P06276); conditions: expected nearly identical to compound 11 of the previous study (same carbamoyl residue at Ser198); cited from earlier work
Chain of hBChE (P06276 29-602): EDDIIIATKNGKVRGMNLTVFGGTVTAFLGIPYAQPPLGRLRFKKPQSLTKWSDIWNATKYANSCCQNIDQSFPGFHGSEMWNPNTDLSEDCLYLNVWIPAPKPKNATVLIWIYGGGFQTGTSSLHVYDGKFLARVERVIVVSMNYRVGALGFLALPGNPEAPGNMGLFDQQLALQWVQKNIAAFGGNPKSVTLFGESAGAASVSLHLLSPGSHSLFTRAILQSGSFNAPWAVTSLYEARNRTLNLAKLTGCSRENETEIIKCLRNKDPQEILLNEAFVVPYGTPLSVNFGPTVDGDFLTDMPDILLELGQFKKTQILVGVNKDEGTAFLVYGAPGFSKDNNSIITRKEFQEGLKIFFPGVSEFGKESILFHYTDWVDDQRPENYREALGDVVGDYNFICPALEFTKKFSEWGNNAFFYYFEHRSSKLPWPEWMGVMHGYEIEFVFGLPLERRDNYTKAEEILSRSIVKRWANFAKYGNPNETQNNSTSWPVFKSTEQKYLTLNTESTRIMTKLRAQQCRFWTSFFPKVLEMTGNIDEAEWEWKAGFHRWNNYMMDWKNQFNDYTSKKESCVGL

Chain of hAChE (P22303 32-614): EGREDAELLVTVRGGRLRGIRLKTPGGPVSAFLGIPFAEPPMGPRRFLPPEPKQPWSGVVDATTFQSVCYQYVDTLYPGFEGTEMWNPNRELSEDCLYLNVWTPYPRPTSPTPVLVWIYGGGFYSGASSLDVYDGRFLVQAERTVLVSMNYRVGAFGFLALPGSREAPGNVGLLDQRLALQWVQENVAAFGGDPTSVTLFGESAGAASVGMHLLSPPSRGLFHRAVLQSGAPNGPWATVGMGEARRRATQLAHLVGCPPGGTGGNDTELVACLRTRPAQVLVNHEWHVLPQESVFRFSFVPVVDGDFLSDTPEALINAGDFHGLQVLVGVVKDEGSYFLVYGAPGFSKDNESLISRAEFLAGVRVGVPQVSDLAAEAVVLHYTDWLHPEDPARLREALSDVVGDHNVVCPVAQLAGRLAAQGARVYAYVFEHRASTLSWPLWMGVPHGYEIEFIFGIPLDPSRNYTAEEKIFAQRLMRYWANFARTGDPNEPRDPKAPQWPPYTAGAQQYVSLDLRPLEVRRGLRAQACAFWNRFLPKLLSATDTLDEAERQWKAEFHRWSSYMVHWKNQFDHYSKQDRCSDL

## CCN(CC)C(=O)n1cnc(C2(CC)Cc3ccccc3C2)c1 [Compound 8, N,N-Diethyl-4-(2-ethylindan-2-yl)-1H-imidazole-1-carboxamide]
hAChE; pre-incubation time varied
  hAChE time-dependency observed: Yes/No: No
hAChE; residual activity at 100 μmol/L, after 5 min preincubation, read-out: hAChE RA±SD (residual activity)
  remaining activity at 100 µM: 62%
[1]
  blood–brain barrier permeation: quickly permeated the blood–brain barrier
tau
  tau hyperphosphorylation in whole brain homogenates: significantly lowered tau hyperphosphorylation
[2]
  spontaneous alternation in the Y maze task: increased spontaneous alternation
hBChE
  kdecarb, decarbamoylation: ∼0.22[53] ×10^–2 h^–1
  t1/2, decarbamoylation: ∼318[53] h
